Source: US20200291018A1, “TAM KINASE INHIBITORS” (SYROS PHARMACEUTICALS, INC., priority 2017, published 2020)
Where a name gives a salt, the structure may show the parent alone.

Assays:
MERTK = target: T1, MERTK (Homo sapiens, UniProt Q12866); test: TR-FRET kinase activity assay, MERTK; type: biochemical; settings: for IC50: TR-FRET activity assay, ATP at Km, 60 minutes, read-out: Mer IC50; for Mer/Flt3 ratio (FLT3 IC50/Mer IC50): ratio calculated as FLT3 IC50/Mer IC50
T1 sequence (Q12866 21-999): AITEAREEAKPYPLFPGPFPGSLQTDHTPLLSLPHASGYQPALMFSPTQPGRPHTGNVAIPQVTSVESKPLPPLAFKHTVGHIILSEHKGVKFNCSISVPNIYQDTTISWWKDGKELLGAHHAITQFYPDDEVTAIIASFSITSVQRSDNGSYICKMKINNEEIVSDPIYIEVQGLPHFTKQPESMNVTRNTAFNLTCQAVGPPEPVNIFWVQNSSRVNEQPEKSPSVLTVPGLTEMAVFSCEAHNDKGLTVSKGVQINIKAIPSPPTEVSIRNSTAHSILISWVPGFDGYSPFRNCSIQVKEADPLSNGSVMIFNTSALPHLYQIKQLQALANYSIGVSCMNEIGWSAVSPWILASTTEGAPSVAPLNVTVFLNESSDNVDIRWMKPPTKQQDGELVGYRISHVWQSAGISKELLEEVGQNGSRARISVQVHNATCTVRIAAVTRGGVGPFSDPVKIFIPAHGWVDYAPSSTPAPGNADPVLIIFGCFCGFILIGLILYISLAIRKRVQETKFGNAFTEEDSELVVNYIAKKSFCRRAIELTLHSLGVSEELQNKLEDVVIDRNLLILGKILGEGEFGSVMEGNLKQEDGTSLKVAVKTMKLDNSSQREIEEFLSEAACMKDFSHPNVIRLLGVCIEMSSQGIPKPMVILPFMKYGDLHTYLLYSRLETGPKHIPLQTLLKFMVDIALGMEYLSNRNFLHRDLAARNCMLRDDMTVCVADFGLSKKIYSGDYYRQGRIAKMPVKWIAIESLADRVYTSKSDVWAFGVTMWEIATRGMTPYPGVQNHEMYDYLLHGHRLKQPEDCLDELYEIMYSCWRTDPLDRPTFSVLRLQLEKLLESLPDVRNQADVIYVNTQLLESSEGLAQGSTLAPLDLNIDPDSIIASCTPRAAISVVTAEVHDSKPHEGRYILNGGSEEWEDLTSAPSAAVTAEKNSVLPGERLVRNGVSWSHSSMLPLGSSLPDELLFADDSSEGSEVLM
Method in brief: (§1)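 Enzyme, fluorescent-labeled peptide substrate and compound were mixed, then ATP was added at each enzyme's Km. Buffer was 50 mM HEPES pH 7.5, 10 mM MgCl2, 1 mM EGTA, 0.01% Brij 35, 1 mM DTT at RT. After 60 min, EDTA quench and 30 min with Eu-anti-phosphotyrosine-site antibody; TR-FRET read gave IC50.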

FLT3 = target: T2, FLT3 (Homo sapiens, UniProt P36888); test: TR-FRET kinase activity assay, FLT3; type: biochemical; settings: ATP at Km, 60 minutes
T2 sequence (P36888 27-993): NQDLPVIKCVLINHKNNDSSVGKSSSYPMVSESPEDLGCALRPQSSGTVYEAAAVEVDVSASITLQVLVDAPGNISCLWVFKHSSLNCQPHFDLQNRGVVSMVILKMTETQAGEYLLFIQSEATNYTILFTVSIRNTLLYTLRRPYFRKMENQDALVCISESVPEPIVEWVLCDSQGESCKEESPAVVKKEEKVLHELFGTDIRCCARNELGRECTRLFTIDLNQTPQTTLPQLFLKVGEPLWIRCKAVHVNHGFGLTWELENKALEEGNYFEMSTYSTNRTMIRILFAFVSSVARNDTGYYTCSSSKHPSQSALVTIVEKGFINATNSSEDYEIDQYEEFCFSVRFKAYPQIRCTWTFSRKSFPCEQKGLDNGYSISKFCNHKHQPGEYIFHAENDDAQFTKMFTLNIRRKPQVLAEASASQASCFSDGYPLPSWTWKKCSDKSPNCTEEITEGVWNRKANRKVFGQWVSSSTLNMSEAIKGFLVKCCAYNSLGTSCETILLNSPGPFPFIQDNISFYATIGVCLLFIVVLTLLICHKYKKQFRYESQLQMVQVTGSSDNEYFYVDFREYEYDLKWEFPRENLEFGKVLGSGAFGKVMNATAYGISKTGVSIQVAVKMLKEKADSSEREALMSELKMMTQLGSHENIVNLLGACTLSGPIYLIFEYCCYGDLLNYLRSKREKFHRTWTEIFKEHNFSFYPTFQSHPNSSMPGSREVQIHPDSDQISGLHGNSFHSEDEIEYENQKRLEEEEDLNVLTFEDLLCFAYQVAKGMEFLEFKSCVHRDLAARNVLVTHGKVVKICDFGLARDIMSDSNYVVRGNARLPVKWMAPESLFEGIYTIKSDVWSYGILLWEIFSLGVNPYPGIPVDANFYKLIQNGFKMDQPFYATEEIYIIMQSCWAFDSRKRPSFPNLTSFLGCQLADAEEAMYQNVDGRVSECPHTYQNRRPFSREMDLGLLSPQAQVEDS
Method in brief: as §1

| Compound | IC50 (MERTK) [µM] | Mer/Flt3 ratio (FLT3 IC50/Mer IC50) (MERTK) | IC50 (FLT3) [µM] |
| --- | --- | --- | --- |
| O[C@H]1CC[C@H](c2cnc(OC3CCOCC3)c3cnc(Nc4ccc(Cl)cc4)nc32)CC1 [Compound 134, (1r,4r)-4-(2-((4-chlorophenyl)amino)-5-((tetrahydro-2H-pyran-4-yl)oxy)pyrido[4,3-d]pyrimidin-8-yl)cyclohexan-1-ol] | ≤ 0.1 | + (a ratio of >2.0 and <10) | 0.1 to 1 |
| CCCC(C)Nc1ncc2c(=O)n(C3CCN(S(C)(=O)=O)CC3)cc([C@H]3CC[C@@H](O)CC3)c2n1 (stereo partly drawn) [Compound 138] | ≤ 0.1 | +++ (a ratio of >100) | 1 to 10 |
| C[C@@H](CO)Nc1ncc2c(OC3CCOCC3)ncc([C@H]3CC[C@H](O)CC3)c2n1 [Compound 137] | 0.1 to 1 | ++ (a ratio of between 10 and 100) | 1 to 10 |
| CCCC(C)Nc1ncc2c(=O)n(C3CCN(C(C)=O)CC3)cc([C@H]3CC[C@H](O)CC3)c2n1 (stereo partly drawn) [Compound 128, 6-(1-acetylpiperidin-4-yl)-8-((1r,4r)-4-hydroxycyclohexyl)-2-(pentan-2-ylamino)pyrido[4,3-d]pyrimidin-5(6H)-one hydrochloride] | ≤ 0.1 | +++ (a ratio of >100) | 1 to 10 |
| CCCC(C)Nc1ncc2c(O[C@H]3CC[C@@H](O)CC3)ncc([C@H]3CC[C@H](O)CC3)c2n1 (stereo partly drawn) [Compound 148] | ≤ 0.1 | +++ (a ratio of >100) | 1 to 10 |
| CCCC(C)Nc1ncc2c(OC3CCS(=O)(=O)CC3)ncc([C@H]3CC[C@H](O)CC3)c2n1 (stereo partly drawn) [Compound 141] | ≤ 0.1 | +++ (a ratio of >100) | 1 to 10 |
| CCCC(C)Nc1ncc2c(OC3CCOCC3)ncc([C@H]3CC[C@H](O)CC3)c2n1 (stereo partly drawn) [Compound 133] | ≤ 0.1 | +++ (a ratio of >100) | 1 to 10 |
| CCCC(C)Nc1ncc2c(OC3CCN(S(C)(=O)=O)CC3)ncc([C@H]3CC[C@H](O)CC3)c2n1 (stereo partly drawn) [Compound 143] | ≤ 0.1 | +++ (a ratio of >100) | 1 to 10 |
| CCCC(C)Nc1ncc2c(NC3CCN(C(=O)C(F)(F)F)CC3)ncc([C@H]3CC[C@H](O)CC3)c2n1 (stereo partly drawn) [Compound 165] | ≤ 0.1 | +++ (a ratio of >100) | 0.1 to 1 |
| CCCC(C)Nc1ncc2c(=O)n(C3CCN(CCC(=O)N(C)C)CC3)cc([C@H]3CC[C@H](O)CC3)c2n1 (stereo partly drawn) [Compound 151] | ≤ 0.1 | +++ (a ratio of >100) | 1 to 10 |
| CCCC(C)Nc1ncc2c(=O)n(C3CCN(CC(=O)N(C)C)CC3)cc([C@H]3CC[C@@H](O)CC3)c2n1 (stereo partly drawn) [Compound 149] | ≤ 0.1 | +++ (a ratio of >100) | 1 to 10 |
| CCCC(C)Nc1ncc2c(OC3CCOCC3)ncc([C@H]3CC[C@@H](N(C)C)CC3)c2n1 (stereo partly drawn) [Compound 184] | ≤ 0.1 | ++ (a ratio of between 10 and 100) | 1 to 10 |
| CCCC(C)Nc1ncc2c(=O)n(C3CCN(CCOC)CC3)cc([C@H]3CC[C@H](O)CC3)c2n1 (stereo partly drawn) [Compound 150] | ≤ 0.1 | +++ (a ratio of >100) | 1 to 10 |
| Cc1nccn1CCNc1ncc2c(OC3CCNCC3)ncc([C@H]3CC[C@H](O)CC3)c2n1 [Compound 163] | 1 to 10 | + (a ratio of >2.0 and <10) | 1 to 10 |
| CCCC(C)Nc1ncc2c(N(C)C3CCN(C)CC3)ncc([C@H]3CC[C@H](O)CC3)c2n1 (stereo partly drawn) [Compound 146] | ≤ 0.1 | ++ (a ratio of between 10 and 100) | 1 to 10 |
| CCCC(C)Nc1ncc2c(O[C@H]3C[C@H](O)C3)ncc([C@H]3CC[C@H](O)CC3)c2n1 (stereo partly drawn) [Compound 187] | ≤ 0.1 | ++ (a ratio of between 10 and 100) | 0.1 to 1 |
| CCCC(C)Nc1ncc2c(=O)n(CCN(C)C)cc([C@H]3CC[C@H](O)CC3)c2n1 (stereo partly drawn) [Compound 169] | ≤ 0.1 | +++ (a ratio of >100) | 1 to 10 |
| CCCCNc1ncc2c(NCc3ccc(F)cc3)ncc([C@H]3CC[C@H](O)CC3)c2n1 [Compound 103, 4-[2-(butylamino)-5-[(4-fluorophenyl)methylamino]pyrido[4,3-d]pyrimidin-8-yl]cyclohexanol hydrochloride] | ≤ 0.1 | + (a ratio of >2.0 and <10) | ≤ 0.1 |
